According to US20240342117A1, “Inhalable Epinephrine Formulation” (De Motu Cordis Pty Ltd, priority 2022, published 2024):

Details: over 4 weeks of storage

CNC[C@H](O)c1ccc(O)c(O)c1 [micronized epinephrine bitartrate, epinephrine bitartrate]
tendency to agglomerate: naturally tends to agglomerate
